Two compounds from ChEMBL document CHEMBL3124746, “Triazine Analogues as NS5B Inhibitors for the Treatment of HCV” (ACS Med Chem Lett, 2014) can be followed below.

Molecules are shown by their SMILES.

This assay deals with Hepatitis C virus. The assay is described as follows: Antiviral activity against HCV infected in human HuH7 cells assessed as inhibition of viral replication after 2 days by luciferase reporter gene assay. The note with it: Huh-7, 48 h. It counts as functional, organism-based, Hepacivirus hominis.

On to `COC(=O)[C@@H](CCNC(=O)C(=O)Nc1cccc(OC(F)(F)F)c1)NC(=O)c1ccc(Nc2nc(NC3(c4ccc(Cl)cc4)CC3)nc(OCC(F)(F)F)n2)cc1`, for which the EC50 (usually the concentration at which the effect is half-maximal) came out at 0.16 nM.
As for `CNC(=O)C(=O)NC[C@@H](NC(=O)c1ccc(Nc2nc(NC3(c4ccc(Cl)cc4)CC3)nc(OCC(F)(F)F)n2)cc1)C(=O)O`, the EC50 amounted to 0.69 nM.
